For data set [1], the system named is Mus musculus. Briefly: Antialzheimer activity in B6C3F1 mouse assessed as amyloid beta 40 level in plasma at 10 mg/kg, po administered as single dose after 3 hrs relative to control. The format is functional.
Data set [2] has as its system Mus musculus. Briefly: Antialzheimer activity in B6C3F1 mouse assessed as amyloid beta 40 level in cortex at 10 mg/kg, po administered as single dose after 3 hrs relative to control. The format is functional.
A short description of data set [3]: Inhibition of gamma-secretase in HEK293 cell membranes expressing human APP Swedish/London double mutant assessed as reduction in amyloid beta 40 formation after 1 hr by electrochemiluminescence based immunoassay.
For data set [4], the target named is T1, Cytochrome P450 3A4 (Homo sapiens, UniProt P08684). Briefly: Inhibition of CYP3A4 in human liver microsomes after 30 secs by LC/MS/MS analysis. In kind it is ADME. A general note: Liver microsomes are a subcellular fraction often used to study metabolism.
The target in data set [5] is Cytochrome P450 2C9 (Homo sapiens, UniProt P11712). Briefly: Inhibition of CYP2C9 in human liver microsomes after 30 secs by LC/MS/MS analysis. The format is ADME.
Data set [6] has as its target Cytochrome P450 2D6 (Homo sapiens, UniProt P10635). Briefly: Inhibition of CYP2D6 in human liver microsomes after 30 secs by LC/MS/MS analysis. In kind it is ADME.
Data set [7] deals with T1, Cytochrome P450 3A4. Briefly: Inhibition of CYP3A4 in human liver microsomes preincubated for 30 mins after 30 secs by LC/MS/MS analysis. In kind it is ADME.
A short description of data set [8]: Clearance in human hepatocytes assessed per million cells by HPLC/atmospheric pressure chemical ionization/MS analysis. The format is ADME, cell-based, Hepatocyte. The settings on record: read-out: CLH.
A short description of data set [9]: Clearance in rat hepatocytes assessed per million cells by HPLC/atmospheric pressure chemical ionization/MS analysis. The following applies: read-out: CLH. In kind it is ADME, cell-based, Hepatocyte.
The nature of data set [10]: Clearance in dog hepatocytes assessed per million cells by HPLC/atmospheric pressure chemical ionization/MS analysis. In kind it is ADME, cell-based, Canis lupus familiaris, Hepatocyte. The settings on record: read-out: CLH.
Data set [11] is described as follows: Clearance in monkey hepatocytes assessed per million cells by HPLC/atmospheric pressure chemical ionization/MS analysis. The following applies: rhesus monkey, read-out: CLH. In kind it is ADME, cell-based, Macaca mulatta, Hepatocyte.
Data set [12] can be described thus: AUC (0 to 6 hrs) in mouse at 10 mg/kg, po by LC/MS/MS analysis. In kind it is ADME, organism-based. Details: time < 6 hr, dose 10 mg/kg, route oral. The settings on record: in vivo.
Data set [13] is described as follows: Ratio of drug level in brain to plasma in mouse at 6 hrs. The format is ADME, organism-based. The following applies: brain and plasma, read-out: BPR.
The target in data set [14] is T2, hERG (KCNH2) (Homo sapiens, UniProt Q12809). Briefly: Inhibition of human ERG at 10 uM by thallium flux assay.
For data set [15], the target named is T2, hERG (KCNH2). Briefly: Inhibition of human ERG at 1 uM by Thallium flux assay.
The test system of data set [16] is Mus musculus. Briefly: Antialzheimer activity in B6C3F1 mouse assessed as reduction in amyloid beta 40 levels in plasma at 30 mg/kg, po after 6 hrs. In kind it is functional. More on the design: scale not given: the % may be the effect or the level left.
The test system of data set [17] is Mus musculus. Briefly: Antialzheimer activity in B6C3F1 mouse assessed as reduction in amyloid beta 40 levels in plasma at 30 mg/kg, po after 12 hrs. In kind it is functional. More on the design: scale not given: the % may be the effect or the level left.
Data set [18] relates to Mus musculus. Briefly: Antialzheimer activity in B6C3F1 mouse assessed as amyloid beta 40 levels in plasma at 30 mg/kg, po after 24 hrs. The format is functional.
The test system of data set [19] is Mus musculus. Briefly: Antialzheimer activity in B6C3F1 mouse assessed as reduction in amyloid beta 40 levels in cortex at 30 mg/kg, po after 6 hrs. In kind it is functional. More on the design: scale not given: the % may be the effect or the level left.
In data set [20] the test system is Mus musculus. Briefly: Antialzheimer activity in B6C3F1 mouse assessed as reduction in amyloid beta 40 levels in cortex at 30 mg/kg, po after 12 hrs. In kind it is functional. Details: scale not given: the % may be the effect or the level left.
The test system of data set [21] is Mus musculus. Briefly: Antialzheimer activity in B6C3F1 mouse assessed as reduction in amyloid beta 40 levels in cortex at 30 mg/kg, po after 24 hrs. More on the design: scale not given: the % may be the effect or the level left. The format is functional.
Data set [22] is described as follows: Dissociation constant, pKa of the compound. The format is physicochemical.
Data set [23] in a line: Drug metabolism in rat assessed as N-demethylation. In kind it is ADME.
Data set [24] is described as follows: Drug metabolism in rat assessed as beta-elemination. In kind it is ADME.

Some results are limits rather than exact numbers.

Broadly, the IC50 is the concentration needed to halve the response being measured. The term AUC(0-t) denotes the area under the concentration-time curve up to a stated or last time point. In general, inhibition refers to the relative decrease from the control value, in per cent. In general, pKa refers to the pH at which an ionisable group is half protonated.

T1 sequence (P08684 whole entry): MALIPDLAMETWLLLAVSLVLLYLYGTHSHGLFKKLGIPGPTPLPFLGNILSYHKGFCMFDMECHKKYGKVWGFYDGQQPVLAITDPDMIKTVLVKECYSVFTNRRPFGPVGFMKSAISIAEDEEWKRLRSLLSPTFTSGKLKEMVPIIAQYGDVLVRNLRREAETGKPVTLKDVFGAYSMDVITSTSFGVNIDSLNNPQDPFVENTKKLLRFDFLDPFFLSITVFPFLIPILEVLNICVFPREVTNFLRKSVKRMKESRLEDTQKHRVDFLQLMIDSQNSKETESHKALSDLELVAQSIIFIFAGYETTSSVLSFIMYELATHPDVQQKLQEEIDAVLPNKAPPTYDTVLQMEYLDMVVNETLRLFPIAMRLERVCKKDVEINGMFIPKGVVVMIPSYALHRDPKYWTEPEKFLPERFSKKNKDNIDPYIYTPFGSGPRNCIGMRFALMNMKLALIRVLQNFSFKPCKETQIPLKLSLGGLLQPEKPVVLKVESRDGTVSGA
T2 sequence (Q12809 whole entry): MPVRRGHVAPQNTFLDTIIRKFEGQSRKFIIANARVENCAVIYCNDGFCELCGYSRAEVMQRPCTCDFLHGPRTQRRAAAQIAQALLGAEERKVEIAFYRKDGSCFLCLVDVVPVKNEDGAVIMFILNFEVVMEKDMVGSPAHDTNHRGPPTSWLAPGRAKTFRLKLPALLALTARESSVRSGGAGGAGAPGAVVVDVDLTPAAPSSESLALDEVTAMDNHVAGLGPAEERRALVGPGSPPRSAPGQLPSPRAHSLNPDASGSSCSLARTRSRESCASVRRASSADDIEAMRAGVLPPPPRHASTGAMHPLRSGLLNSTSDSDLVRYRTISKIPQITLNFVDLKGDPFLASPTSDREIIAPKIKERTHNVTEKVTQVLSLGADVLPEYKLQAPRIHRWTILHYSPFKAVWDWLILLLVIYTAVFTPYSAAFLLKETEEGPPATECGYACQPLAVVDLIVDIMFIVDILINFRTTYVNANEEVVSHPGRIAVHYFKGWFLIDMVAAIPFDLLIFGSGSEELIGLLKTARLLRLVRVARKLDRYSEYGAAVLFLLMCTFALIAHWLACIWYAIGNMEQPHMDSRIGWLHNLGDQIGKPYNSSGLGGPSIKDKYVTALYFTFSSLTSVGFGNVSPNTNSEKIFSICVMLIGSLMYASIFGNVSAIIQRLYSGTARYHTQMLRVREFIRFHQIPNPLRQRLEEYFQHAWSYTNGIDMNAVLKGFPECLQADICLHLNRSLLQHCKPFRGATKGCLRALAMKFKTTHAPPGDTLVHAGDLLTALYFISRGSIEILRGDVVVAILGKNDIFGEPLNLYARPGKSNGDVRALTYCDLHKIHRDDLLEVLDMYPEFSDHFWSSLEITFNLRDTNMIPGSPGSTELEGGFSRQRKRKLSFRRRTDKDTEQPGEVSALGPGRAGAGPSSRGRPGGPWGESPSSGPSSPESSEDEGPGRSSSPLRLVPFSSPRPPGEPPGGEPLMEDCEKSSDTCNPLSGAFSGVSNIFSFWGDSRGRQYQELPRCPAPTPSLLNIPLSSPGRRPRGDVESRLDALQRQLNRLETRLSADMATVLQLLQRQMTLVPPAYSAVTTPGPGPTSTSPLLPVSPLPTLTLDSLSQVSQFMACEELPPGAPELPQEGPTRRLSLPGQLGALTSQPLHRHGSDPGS
Sequence of Cytochrome P450 2D6 (P10635 whole entry): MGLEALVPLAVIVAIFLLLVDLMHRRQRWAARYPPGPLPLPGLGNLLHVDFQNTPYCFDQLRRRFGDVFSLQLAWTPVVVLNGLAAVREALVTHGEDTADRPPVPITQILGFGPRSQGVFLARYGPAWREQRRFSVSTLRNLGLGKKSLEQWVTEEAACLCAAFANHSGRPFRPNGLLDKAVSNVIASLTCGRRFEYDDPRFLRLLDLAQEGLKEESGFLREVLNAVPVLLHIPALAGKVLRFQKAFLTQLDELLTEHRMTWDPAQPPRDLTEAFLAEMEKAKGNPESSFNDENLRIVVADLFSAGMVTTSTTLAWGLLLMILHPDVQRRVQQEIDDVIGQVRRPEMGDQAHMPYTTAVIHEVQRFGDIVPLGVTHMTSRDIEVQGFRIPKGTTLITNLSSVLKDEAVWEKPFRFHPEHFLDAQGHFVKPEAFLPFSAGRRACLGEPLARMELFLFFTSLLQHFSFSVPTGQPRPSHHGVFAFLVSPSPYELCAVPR
Sequence of Cytochrome P450 2C9 (P11712 whole entry): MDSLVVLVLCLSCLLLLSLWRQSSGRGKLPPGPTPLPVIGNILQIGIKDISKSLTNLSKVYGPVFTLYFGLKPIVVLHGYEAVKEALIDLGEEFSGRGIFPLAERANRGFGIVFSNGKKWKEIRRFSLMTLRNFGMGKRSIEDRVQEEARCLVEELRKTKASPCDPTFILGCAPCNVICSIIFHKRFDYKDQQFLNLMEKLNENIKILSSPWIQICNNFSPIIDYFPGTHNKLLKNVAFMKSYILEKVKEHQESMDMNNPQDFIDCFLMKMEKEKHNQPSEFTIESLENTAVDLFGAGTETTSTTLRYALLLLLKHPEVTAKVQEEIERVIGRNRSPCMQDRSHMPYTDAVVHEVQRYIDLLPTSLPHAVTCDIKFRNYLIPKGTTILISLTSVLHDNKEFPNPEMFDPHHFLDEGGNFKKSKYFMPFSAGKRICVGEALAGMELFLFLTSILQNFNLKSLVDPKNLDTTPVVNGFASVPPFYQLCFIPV

For the molecule `CNCCS(=O)(=O)CC[C@@H]1OCC[C@@]2(S(=O)(=O)c3ccc(Cl)cc3)c3c(F)ccc(F)c3OC[C@@H]12`, the Activity is -44% in [1]; -61% in data set [2]; 93% in [16]; 35% in data set [17]; 50% in data set [18]; 73% in data set [19]. Also, the Activity in data set [20] is listed as 66%; in data set [21], 37%. The IC50 in [3] is 0.0041 µM; in [4], greater than 20 µM; in data set [5], greater than 20 µM; in data set [6], greater than 20 µM; in [7] it was 8.4 µM. The hepatocyte CLint in data set [8] stood at 17.3 µL/min/1e6 cells; in data set [9], 22.3 µL/min/1e6 cells; in [10] it was 11.5 µL/min/1e6 cells; in [11], 40.5 µL/min/1e6 cells. In data set [12], this molecule yielded an AUC(0-t) at 6 h of 0.532 µM·h. In addition, the Kp at 6 h in data set [13] was 0.4. The same molecule gave an inhibition at 10 µM in [14] of 21%. In [15], this molecule showed an inhibition at 1 µM of 1%. The same molecule had a pKa in data set [22] of 7.7. Moreover, the Drug metabolism entry in data set [23] and in [24] was “Metabolite_Notdetected” each time.
